Data as given in patent US6046235A, “Sulfur-containing amino acid derivatives” (Santen Pharmaceutical Co., Ltd., priority 1996, dated 2000).
Each block holds one molecule with its values, some of them ahead of it.

How the values were obtained:
[1] = tested on: LTA4 hydrolase; conditions: literature; cited from earlier work
[2] = tested on: collagen-induced arthritis model; conditions: J. Med. Chem., 37, 3197-3199 (1994); cited from earlier work
[3] = target: T1, LTA4 hydrolase (Cavia porcellus, UniProt P19602); experiment: LTA4 hydrolase inhibition (LTB4 formed from LTA4, guinea pig lung enzyme preparation); assay type: biochemical; conditions: Comparison Test
T1 construct: Lungs were excised from a Hartley guinea pig; from tissue; host or cells: Hartley guinea pig lung, 100,000×g supernatant, 40-70% ammonium sulfate fraction, dialyzed
T1 sequence (P19602 1-611): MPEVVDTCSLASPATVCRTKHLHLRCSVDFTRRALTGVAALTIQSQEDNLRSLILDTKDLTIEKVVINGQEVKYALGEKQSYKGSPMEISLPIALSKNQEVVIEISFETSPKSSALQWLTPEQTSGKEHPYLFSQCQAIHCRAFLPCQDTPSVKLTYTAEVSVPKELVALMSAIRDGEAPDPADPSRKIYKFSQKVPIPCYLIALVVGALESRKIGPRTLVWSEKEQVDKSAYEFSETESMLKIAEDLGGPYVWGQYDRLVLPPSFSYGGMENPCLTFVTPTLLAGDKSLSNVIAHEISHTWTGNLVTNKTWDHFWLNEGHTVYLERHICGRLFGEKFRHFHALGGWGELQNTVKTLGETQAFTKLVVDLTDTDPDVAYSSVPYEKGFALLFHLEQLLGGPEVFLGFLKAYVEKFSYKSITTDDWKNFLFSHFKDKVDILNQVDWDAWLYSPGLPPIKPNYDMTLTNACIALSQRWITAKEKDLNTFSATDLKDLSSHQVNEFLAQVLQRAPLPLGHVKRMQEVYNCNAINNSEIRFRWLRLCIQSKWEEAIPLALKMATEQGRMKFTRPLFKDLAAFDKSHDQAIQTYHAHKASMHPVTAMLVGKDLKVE
Description: Effects of the present compounds on LTA4 hydrolase were examined according to the method described in the literature.
Lungs were excised from a Hartley guinea pig (body weight: 330 g). The lungs were homogenized in phosphoric acid buffer (50 mM, pH 7.4, containing 1 mM ethylenediaminetetraacetic acid (EDTA) and 1 mM dithiothreitol (DTT) having weight three times that of the lungs under ice-cooling. The homogenate was centrifuged at low speed (800×g) for 20 minutes, centrifuged at high speed (10,000×g) for 20 minutes and ultracentrifuged (100,000×g) for 60 minutes to give a supernatant. The supernatant was brought to 40% saturation by adding a saturated aqueous ammonium sulfate solution (pH 7.0-7.2, containing 1 mM DTT) dropwise under ice-cooling and centrifuged at high speed (10,000×g) for 20 minutes. The resulting supernatant was brought to 70% saturation by adding a saturated aqueous ammonium sulfate solution (pH 7.0-7.2, containing 1 mM DTT) dropwise and centrifuged at high speed (10,000×g) for 20 minutes. The obtained pellet was dissolved in 2 ml of Tris-acetic acid buffer (20 mM, pH 7.8, containing 1 mM DTT) and dialyzed in 2 liters of the solution to give the enzyme preparation.
LTA4 used, which is the substrate, was prepared by hydrolyzing LTA4 methyl ester and dissolved in ethanol.
In order to examine effects of the present compounds on the enzyme preparation, reactions were performed under the following condition using mixed solutions consisting of the composition shown in Table 1.
HEPES buffer 50 mM, pH 7.8
Enzyme preparation 0.4-0.6 mg protein
Aqueous DTT solution 3 mM
The above-mentioned solution (50 μl ) was incubated at 37° C. for one minute. To the reaction mixture was added 100 μl of a mixed liquid of acetonitrile-ethanol-acetic acid (150:50:3, volume ratio) under ice-cooling. The mixture was allowed to stand at -20° C. for 30 minutes and centrifuged at high speed (10,000×g) for five minutes to give a supernatant. An amount of LTB4 produced in the supernatant was measured by high-speed liquid chromatography.
The degree of the inhibitory effect of each test compound on LTA4 hydrolase is expressed by the inhibition rate calculated by the following equation. [formula]
A: amount of LTB4 formed in the absence of the test compound
B: amount of LTB4 formed in the presence of the test compound
Experiments were carried out under the same conditions as those of the above-mentioned "Pharmacological Test".

Structure (SMILES): O=C(O)c1cccc(C2CO2)c1 (stereo not shown) [3-oxiranylbenzoic acid]
- inhibitory effect on LTA4 hydrolase (in words) [1]: inhibitory effects on LTA4 hydrolase

Structure (SMILES): O=C(O)C1(c2ccc3c(c2)OC[C@H](Cc2ccc(-c4ccccc4)cc2)[C@H]3O)CCCC1 [(+)-1-(3S, 4R)-[3-(4-phenylbenzyl)-4-hydroxychroman-7-yl]cyclopentanecarboxylic acid]
- inhibitory effect on LTA4 hydrolase (in words) [1]: inhibitory effect on LTA4 hydrolase
- onset of arthritis (in words) [2]: inhibited the onset of arthritis

- inhibitory effect on LTA4 hydrolase relative to that of the present compound (No. 2-12) ([3]; ratio to compound No. 2-12): about 1/100
- inhibitory effect on LTA4 hydrolase relative to those of the present compounds ([3]; ratio to the present compounds): one tenth
- IC50 ([3]; same conditions as Pharmacological Test, read-out: IC50): 4.5 µM
Structure (SMILES): CC(C)(C)c1ccc(CSC[C@H](NC(=O)C(CS)Cc2ccccc2)C(=O)O)cc1 (stereo partly shown) [known compound [II], reference compound]

- inhibitory effect on LTA4 hydrolase ([3]; even at a concentration of 10^-5 M): little inhibitory effect
Structure (SMILES): CC(CS)C(=O)N[C@@H](CSCc1ccccc1)C(=O)O (stereo partly shown) [known compound [I], reference compound]
